{"source": "patent US20240299353A1", "about": "“COMPOSITIONS AND METHODS FOR TREATING […] 5-MEO-DMT” (Alvarius Pharmaceuticals Ltd., priority 2021, published 2024)", "test_system": "hippocampal proteins", "experiment": "Hippocampal LC-MS/MS proteomics and PANTHER pathway overrepresentation", "type": "in vivo, Male Wistar rats", "settings": "hippocampus", "protocol": "These treatment groups were used for the molecular assessment of addiction-linked markers.\nDue to incompatibilities between components of the lysis buffer in the High-Performance Liquid Chromatography (HPLC) mass spectrometer the samples were first precipitated in 100% (w/v) Trichloroacetic acid (TCA). 1 volume of TCA stock was added to 4 volumes of protein sample. The mixture was incubated for 10 mins at 4° C. before centrifugation at 14,000 RPM for 5 mins. The supernatant was discarded and the pellet was washed in acetone. The acetone was then discarded and the pellet was air-dried before resuspension in 6M urea (Sigma) made in 50 mM ammonium bicarbonate (ABC, Sigma). 100 mM dithiothreitol (DTT) was added to the sample for a final concentration of 5 mM and the sample was incubated while vortexing at 60° C. for 30 mins. Next, 200 mM iodoacetemide (IAA, Sigma) solution was added and the sample was incubated in the dark at room temperature for 30 mins. The sample was then diluted with 50 mM ABC to give a final concentration of ≤2M Urea before the addition of trypsin. 50 μl of reduced, alkylated sample was added to a vial of trypsin singles, proteomic grade (Sigma) and incubated at 37° C. overnight while vortexing. 1% acetic acid (AA) was added to the sample to stop the trypsination the following day. Sample clean-up was performed using Stage Tips for a 10 μl pipette with a 0.6 μl C18 resin (Merck) and clean up was carried out as follows; Tip was equilibrated (10 μl of 50% acetonitrile (ACN) in 0.1% trifluoroacetic acid (TFA) was aspirated into the tip and dispensed to waste x2, 10 μl of 0.1% TFA was aspirated and dispensed to waste x2), peptides were bound to resin and washed (10 μl of sample was aspirated and dispensed x5 cycles, 10 μl of 0.1% TFA was aspirated and dispensed to waste x2) before being eluted into a collecting tube containing 30 μl of 50% ACN in 0.1% TFA (aspirate and dispense the sample through Stage Tip x3). This process was repeated three times for each sample using the same Stage Tip and collection tube. Samples were dried in a vacuum centrifuge for 30 mins at 60° C. and resuspended in 30 μl of Buffer A (97% water, 2.5% ACN and 0.5% AA) and stored at −20° C.\nDigested samples were run on a Thermo Scientific Q Exactive mass spectrometer connected to a Dionex Ultimate 3000 (RSLCnano) chromatography system. Tryptic peptides were resuspended in 0.1% formic acid. Each sample was loaded onto a fused silica emitter (75 μm ID, pulled using a laser puller (Sutter Instruments P2000)), packed with Recrocil Pur C18 (1.9 μm) reverse phase media and was separated by an increasing acetonitrile gradient over 47 mins at a flow rate of 250 nL/min. The mass spectrometer was operated in positive ion mode with a capillary temperature of 320° C., and with a potential of 2300V applied to the frit. All readings were acquired with the mass spectrometer operating in automatic data dependent switching mode. A high resolution (70,000) MS scan was performed using the Q Exactive to select the most intense ions prior to MS/MS analysis using Higher-energy collisional dissociation (HCD). To identify peptides and proteins the MS/MS spectra were searched against the rat UniProt database. The database searches were performed with carbamidomethylation (C) as a fixed modification and acetylation (protein N terminus) and oxidation (M) as variable modifications. Filtering by a false discovery rate (FDR) was applied for peptides and proteins (0.01). For the generation of label-free quantitative (LFQ) ion intensities for protein profiles, signals of corresponding peptides in different LCMS/MS runs were matched by MaxQuant.\nThe Perseus statistical software contained in the MaxQuant package was used to analyze ion intensities (LFQ Intensity). Protein identities were filtered to eliminate the identifications from the reverse database, only identified by site and common contaminants.", "note": "“And” between values parts separate entries of the source, which are not always exact repeats. Equal values may be shown once.", "data": [{"smiles": "COC(=O)[C@H]1[C@@H](OC(=O)c2ccccc2)C[C@@H]2CC[C@H]1N2C.Cl", "note": "[cocaine, cocaine hydrochloride, reference compound]", "values": [{"measurement": "differentially expressed proteins vs saline+vehicle", "setting": "24 h, cocaine+vehicle, p<0.05, fold change ≥±20%", "value": 340, "unit": "proteins"}, {"measurement": "pathways significantly overrepresented (PANTHER)", "setting": "cocaine group", "value": 157, "unit": "pathways"}, {"measurement": "top overrepresented pathways", "setting": "cocaine-experienced animals", "value": "regulation of metabolic processes, protein translation and synaptic signalling"}]}, {"smiles": "COc1ccc2[nH]cc(CCN(C)C)c2c1", "note": "[5-MeO-DMT, 5-methoxy-N,N-dimethyltryptamine]", "values": [{"measurement": "of the 118 5-MeO-DMT differentially expressed proteins, shared with the combination", "setting": "10 mg/kg 5-MeO-DMT", "value": 45, "unit": "proteins"}, {"measurement": "pathways significantly overrepresented (PANTHER)", "setting": "10 mg/kg 5-MeO-DMT", "value": 16, "unit": "pathways"}, {"measurement": "top overrepresented pathways", "setting": "10 mg/kg 5-MeO-DMT", "value": "altered protein translation and synthesis"}, {"measurement": "of the 120 5-MeO-DMT differentially expressed proteins, shared with the combination", "setting": "20 mg/kg 5-MeO-DMT", "value": 57, "unit": "proteins"}, {"measurement": "pathways significantly overrepresented (PANTHER)", "setting": "20 mg/kg 5-MeO-DMT", "value": 24, "unit": "pathways"}, {"measurement": "top overrepresented pathways", "setting": "20 mg/kg 5-MeO-DMT", "value": "regulation of synapse organisation, structure and activity as well as modulating chemical transmission"}, {"measurement": "differentially expressed proteins vs saline+vehicle", "setting": "24 h, 10 mg/kg 5-MeO-DMT", "value": 118, "unit": "proteins"}, {"measurement": "differentially expressed proteins shared between the two concentrations", "setting": "24 h, 10 mg/kg and 20 mg/kg 5-MeO-DMT alone", "value": 32, "unit": "proteins"}, {"measurement": "differentially expressed proteins vs saline+vehicle", "setting": "24 h, 20 mg/kg 5-MeO-DMT", "value": 120, "unit": "proteins"}, {"measurement": "differentially expressed proteins vs saline+vehicle", "setting": "24 h, cocaine+10 mg/kg 5-MeO-DMT, 10 mg/kg", "value": "541 proteins and 544 proteins"}, {"measurement": "differentially expressed proteins vs saline+vehicle", "setting": "24 h, cocaine+20 mg/kg 5-MeO-DMT", "value": 221, "unit": "proteins"}, {"measurement": "of the 340 cocaine differentially expressed proteins, remaining in the combination", "setting": "cocaine+10 mg/kg 5-MeO-DMT", "value": 245, "unit": "proteins"}, {"measurement": "pathways significantly overrepresented (PANTHER)", "setting": "cocaine+10 mg/kg 5-MeO-DMT", "value": 309, "unit": "pathways"}, {"measurement": "top overrepresented pathways", "setting": "cocaine+10 mg/kg 5-MeO-DMT", "value": "NAD and NADH metabolism, positive regulation of lamellipodium assembly and modulation of synaptic signaling"}, {"measurement": "of the 340 cocaine differentially expressed proteins, remaining in the combination", "setting": "cocaine+20 mg/kg 5-MeO-DMT", "value": 85, "unit": "proteins"}, {"measurement": "pathways significantly overrepresented (PANTHER)", "setting": "cocaine+20 mg/kg 5-MeO-DMT", "value": 67, "unit": "pathways"}, {"measurement": "top overrepresented pathways", "setting": "cocaine+20 mg/kg 5-MeO-DMT", "value": "positive regulation of telomerase activity, negative regulation of apoptosis and regulation of synapse organization, structure and activity"}, {"measurement": "differentially expressed proteins shared between the combination groups", "setting": "cocaine+10 and cocaine+20 mg/kg 5-MeO-DMT", "value": 153, "unit": "proteins"}]}]}
